Patent publication EP4553080A1, “NUCLEOSIDE DERIVATIVES AS ANTIVIRAL AGENTS AGAINST CORONAVIRUSES” (Ustav Organicke Chemie a Biochemie AV CR, v.v.i., priority 2023, dated 2025)

Target: nsp14 methyltransferase from SARS-CoV-2 (Severe acute respiratory syndrome coronavirus 2, UniProt P0DTD1)
Assay: Nsp14 MTase activity inhibition in vitro (EchoMS assay)
Format: biochemical
Settings: recombinant nsp14 protein expressed in E. coli; dose-response curve

With `CCc1cn([C@@H]2O[C@H](CSCc3c(C)noc3-c3ccccc3)[C@@H](O)[C@H]2O)c2ncnc(N)c12` [Compound 142, (2R,3R,4S,5S)-2-(4-Amino-5-ethyl-7H-pyrrolo[2,3-d]pyrimidin-7-yl)-5-((((3-methyl-5-phenylisoxazol-4-yl)methyl)thio)methyl)tetrahydrofuran-3,4-diol] as the compound, how does the IC50 read?
Its IC50 is 30 to 100 nM.

How did the IC50 turn out when `Cc1noc(-c2ccc(F)cc2)c1CSC[C@H]1O[C@@H](n2ccc3c(N)ncnc32)[C@H](O)[C@@H]1O` [Compound 97c, (2R,3R,4S,5S)-2-(4-Amino-7H-pyrrolo[2,3-d]pyrimidin-7-yl)-5-((((5-(4-fluorophenyl)-3-methylisoxazol-4-yl)methyl)thio)methyl)tetrahydrofuran-3,4-diol] was run?
The IC50 was 100 to 500 nM.

With `Cc1noc(-c2ccc3c(c2)OCO3)c1CSC[C@H]1O[C@@H](n2cc(-c3ccc(C#N)cc3)c3c(N)ncnc32)[C@H](O)[C@@H]1O` [Compound 236b] as the compound, how does the IC50 read?
Its IC50 is 10 to 30 nM.

`Cc1noc(-c2ccccc2)c1CSC[C@H]1O[C@@H](n2ncc3c(N)ncnc32)[C@H](O)[C@@H]1O` [Compound 213, (2R,3R,4S,5S)-2-(4-Amino-1H-pyrazolo[3,4-d]pyrimidin-1-yl)-5-((((3-methyl-5-phenylisoxazol-4-yl)methyl)thio)methyl)tetrahydrofuran-3,4-diol] was tested. Which IC50 did it give?
Its IC50 is 30 to 100 nM.

Which IC50 does the source give for `Cc1noc(-c2ccccc2)c1CSC[C@H]1O[C@@H](n2nc(-c3ccc(CC#N)cc3)c3c(N)ncnc32)[C@H](O)[C@@H]1O` [Compound 222b, 2-(4-(4-Amino-1-((2R,3R,4S,5S)-3,4-dlhydroxy-5-((((3-methyl-5-phenylisoxazol-4-yl)methyl)thio)methyl)tetrahydrofuran-2-yl)-1H-pyrazolo[3,4-d]pyrimidin-3-yl)phenyl)acetonitrile] here?
The IC50 was 10 to 30 nM.

`Nc1ncnc2c1ccn2[C@@H]1O[C@H](CSCc2csnc2-c2ccccc2)[C@@H](O)[C@H]1O` [Compound 105c, (2R,3R,4S,5S)-2-(4-Amino-7H-pyrrolo[2,3-d]pyrimidin-7-yl)-5-((((3-phenylisothiazol-4-yl)methyl)thio)methyl)tetrahydrofuran-3,4-diol] was tested. Which IC50 did it give?
Its IC50 is 500 to 2000 nM.

Which IC50 does the source give for `Cc1noc(-c2ccccc2)c1CSC[C@H]1O[C@@H](n2cc(F)c3c(N)ncnc32)[C@H](O)[C@@H]1O` [Compound 128, (2R,3R,4S,5S)-2-(4-Amino-5-fluoro-7H-pyrrolo[2,3-d]pyrimidin-7-yl)-5-((((3-methyl-5-phenylisoxazol-4-yl)methyl)thio)methyl)tetrahydrofuran-3,4-diol] here?
Its IC50 is 100 to 500 nM.

With `Cn1c(-c2ccccc2)nc(-c2ccccc2)c1CSC[C@H]1O[C@@H](n2ccc3c(N)ncnc32)[C@H](O)[C@@H]1O` [Compound 120c, (2R,3R,4S,5S)-2-(4-Amino-7H-pyrrolo[2,3-d]pyrimidin-7-yl)-5-((((1-methyl-2,4-diphenyl-1H-imidazol-5-yl)methyl)thio)methyl)tetrahydrofuran-3,4-diol] as the compound, how does the IC50 read?
The IC50 was 30 to 100 nM.

Which IC50 does the source give for `Cc1ncnc(-c2ccccc2)c1CSC[C@H]1O[C@@H](n2cc(-c3ccc(C#N)cc3)c3c(N)ncnc32)[C@H](O)[C@@H]1O` [Compound 232b, 4-(4-Amino-7-((2R,3R,4S,5S)-3,4-dihydroxy-5-((((4-methyl-6-phenylpyrimidin-5-yl)methyl)thio)methyl)tetrahydrofuran-2-yl)-7H-pyrrolo[2,3-d]pyrimidin-5-yl)benzonitrile] here?
The IC50 was 30 to 100 nM.

Which IC50 does the source give for `Cc1onc(-c2ccccc2)c1CSC[C@H]1O[C@@H](n2ccc3c(N)ncnc32)[C@H](O)[C@@H]1O` [Compound 48c, (2R,3R,4S,5S)-2-(4-Amino-7H-pyrrolo[2,3-d]pyrimidin-7-yl)-5-((((5-methyl-3-phenylisoxazol-4-yl)methyl)thio)methyl)tetrahydrofuran-3,4-diol] here?
The IC50 was 100 to 500 nM.

For `Cc1nccc(-c2ccccc2)c1CSC[C@H]1O[C@@H](n2ccc3c(N)ncnc32)[C@H](O)[C@@H]1O` [Compound 50c, (2R,3R,4S,5S)-2-(4-Amino-7H-pyrrolo[2,3-d]pyrimidin-7-yl)-5-((((2-methyl-4-phenylpyridin-3-yl)methyl)thio)methyl)tetrahydrofuran-3,4-diol], which IC50 is on record?
Its IC50 is 100 to 500 nM.

For `Cc1noc(-c2ccc(N)cc2)c1CSC[C@H]1O[C@@H](n2ccc3c(N)ncnc32)[C@H](O)[C@@H]1O` [Compound 111, (2R,3R,4S,5S)-2-(4-Amino-7H-pyrrolo[2,3-d]pyrimidin-7-yl)-5-((((5-(4-aminophenyl)-3-methylisoxazol-4-yl)methyl)thio)methyl)tetrahydrofuran-3,4-diol], which IC50 is on record?
The IC50 was 30 to 100 nM.

For `Cc1noc(-c2ccccc2)c1CSC[C@H]1O[C@@H](n2cc(-c3ccc(N)cc3)c3c(N)ncnc32)[C@H](O)[C@@H]1O` [Compound 157], which IC50 is on record?
Its IC50 is 30 to 100 nM.

For `Cc1noc(-c2ccccc2)c1CSC[C@H]1O[C@@H](n2cc(Sc3ccccc3)c3c(N)ncnc32)[C@H](O)[C@@H]1O` [Compound 189b, (2R,3R,4S,5S)-2-(4-Amino-5-(phenylthio)-7H-pyrrolo[2,3-d]pyrimidin-7-yl)-5-((((3-methyl-5-phenylisoxazol-4-yl)methyl)thio)methyl)tetrahydrofuran-3,4-diol], which IC50 is on record?
The IC50 was 30 to 100 nM.

For `Cc1nsc(-c2ccccc2)c1CSC[C@H]1O[C@@H](n2cc(-c3ccc(C#N)cc3)c3c(N)ncnc32)[C@H](O)[C@@H]1O` [Compound 231b, 4-(4-Amino-7-((2R,3R,4S,5S)-3,4-dihydroxy-5-((((3-methyl-5-phenylisothiazol-4-yl)methyl)thio)methyl)tetrahydrofuran-2-yl)-7H-pyrrolo[2,3-d]pyrimidin-5-yl)benzonitrile], which IC50 is on record?
Its IC50 is 100 to 500 nM.

Which IC50 does the source give for `Cc1noc(-c2ccccc2)c1CSC[C@H]1O[C@@H](n2cc(C3CCCC3)c3c(N)ncnc32)[C@H](O)[C@@H]1O` [Compound 133b, (2R,3R,4S,5S)-2-(4-Amino-5-cyclopentyl-7H-pyrrolo[2,3-d]pyrimidin-7-yl)-5-((((3-methyl-5-phenylisoxazol-4-yl)methyl)thio)methyl)tetrahydrofuran-3,4-diol] here?
Its IC50 is 100 to 500 nM.

Which IC50 does the source give for `Cc1noc(-c2ccccc2)c1CSC[C@H]1O[C@@H](n2cc(-c3ccc(-c4ccccn4)cc3)c3c(N)ncnc32)[C@H](O)[C@@H]1O` [Compound 188] here?
Its IC50 is 30 to 100 nM.

How did the IC50 turn out when `Cc1noc(-c2ccccc2)c1CSC[C@H]1O[C@@H](n2cc(-c3ccc4ccccc4c3)c3c(N)ncnc32)[C@H](O)[C@@H]1O` [Compound 148b, (2R,3R,4S,5S)-2-(4-Amino-5-(naphthalen-2-yl)-7H-pyrrolo[2,3-d]pyrimidin-7-yl)-5-((((3-methyl-5-phenylisoxazol-4-yl)methyl)thio)methyl)tetrahydrofuran-3,4-diol] was run?
Its IC50 is 100 to 500 nM.

For `Cc1noc(-c2ccccc2)c1CSC[C@H]1O[C@@H](n2nc(-c3ccc(C#N)cc3)c3c(N)ncnc32)[C@H](O)[C@@H]1O` [Compound 219b, 4-(4-Amino-1-((2R,3R,4S,5S)-3,4-dihydroxy-5-((((3-methyl-5-phenylisoxazol-4-yl)methyl)thio)methyl)tetrahydrofuran-2-yl)-1H-pyrazolo[3,4-d]pyrimidin-3-yl)benzonitrile], which IC50 is on record?
The IC50 was 30 to 100 nM.

For `Cc1nsc(-c2ccccc2)c1CSC[C@H]1O[C@@H](n2cc(I)c3c(N)ncnc32)[C@H](O)[C@@H]1O` [Compound 245, (2R,3R,4S,5S)-2-(4-Amino-5-iodo-7H-pyrrolo[2,3-d]pyrimidin-7-yl)-5-((((3-methyl-5-phenylisothiazol-4-yl)methyl)thio)methyl)tetrahydrofuran-3,4-diol], which IC50 is on record?
The IC50 was 30 to 100 nM.

With `Cc1noc(-c2ccccc2)c1CSC[C@H]1O[C@@H](n2cc(SCc3ccccc3)c3c(N)ncnc32)[C@H](O)[C@@H]1O` [Compound 190b, (2R,3R,4S,5S)-2-(4-Amino-5-(benzylthio)-7H-pyrrolo[2,3-d]pyrimidin-7-yl)-5-((((3-methyl-5-phenylisoxazol-4-yl)methyl)thio)methyl)tetrahydrofuran-3,4-diol] as the compound, how does the IC50 read?
The IC50 was 100 to 500 nM.

Which IC50 does the source give for `Cc1noc(-c2ccccc2)c1CSC[C@H]1O[C@@H](n2cc(C#Cc3ccccc3)c3c(N)ncnc32)[C@H](O)[C@@H]1O` [Compound 180, (2R,3R,4S,5S)-2-(4-Amino-5-(phenylethynyl)-7H-pyrrolo[2,3-d]pyrimidin-7-yl)-5-((((3-methyl-5-phenylisoxazol-4-yl)methyl)thio)methyl)tetrahydrofuran-3,4-diol] here?
Its IC50 is 30 to 100 nM.

For `Cc1noc(-c2ccccc2)c1CSC[C@H]1O[C@@H](n2cc(C#Cc3ccnnc3)c3c(N)ncnc32)[C@H](O)[C@@H]1O` [Compound 173b], which IC50 is on record?
The IC50 was 10 to 30 nM.

Which IC50 does the source give for `Cc1noc(-c2ccccc2)c1CSC[C@H]1O[C@@H](n2nc(C#Cc3cncnc3)c3c(N)ncnc32)[C@H](O)[C@@H]1O` [Compound 218b] here?
The IC50 was 30 to 100 nM.

For `COc1ccc(-c2nc(C)c(CSC[C@H]3O[C@@H](n4ccc5c(N)ncnc54)[C@H](O)[C@@H]3O)c(-c3ccccc3)n2)cc1OC` [Compound 119c, (2R,3R,4S,5S)-2-(4-Amino-7H-pyrrolo[2,3-d]pyrimidin-7-yl)-5-((((2-(3,4-dimethoxyphenyl)-4-methyl-6-phenylpyrimidin-5-yl)methyl)thio)methyl)tetrahydrofuran-3,4-diol], which IC50 is on record?
The IC50 was 30 to 100 nM.

`Cc1noc(-c2ccccc2)c1CSC[C@H]1O[C@@H](n2ccc3c(N)nc(Cl)nc32)[C@H](O)[C@@H]1O` [Compound 204, (2R,3R,4S,5S)-2-(4-Amino-2-chloro-7H-pyrrolo[2,3-d]pyrimidin-7-yl)-5-((((3-methyl-5-phenylisoxazol-4-yl)methyl)thio)methyl)tetrahydrofuran-3,4-diol] was tested. Which IC50 did it give?
The IC50 was 10 to 30 nM.

How did the IC50 turn out when `Cc1noc(-c2ccccc2)c1CSC[C@H]1O[C@@H](n2cc(SC34CC5CC(CC(C5)C3)C4)c3c(N)ncnc32)[C@H](O)[C@@H]1O` [Compound 191, (2R,3R,4S,5S)-2-(5-((Adamantan-1-yl)thio)-4-amino-7H-pyrrolo[2,3-d]pyrimidin-7-yl)-5-((((3-methyl-5-phenylisoxazol-4-yl)methyl)thio)methyl)tetrahydrofuran-3,4-diol] was run?
Its IC50 is 100 to 500 nM.

Which IC50 does the source give for `Nc1ncnc2c1ccn2[C@@H]1O[C@H](CSCc2c(-c3ccccc3)noc2-c2ccccc2)[C@@H](O)[C@H]1O` [Compound 109c, (2R,3R,4S,5S)-2-(4-Amino-7H-pyrrolo[2,3-d]pyrimidin-7-yl)-5-((((3,5-diphenylisoxazol-4-yl)methyl)thio)methyl)tetrahydrofuran-3,4-diol] here?
Its IC50 is 100 to 500 nM.
